Data as given in ChEMBL document CHEMBL4041509, “Structure-activity relationship study of novel 2-aminobenzofuran derivatives as P-glycoprotein inhibitors” (Eur J Med Chem, 2017).

Assays:
[1] = target: T1, ATP-dependent translocase ABCB1 (Homo sapiens, UniProt P08183); assay: Inhibition of ABCB1 (unknown origin) expressed in Flp-In-293 cells assessed as increase in calcein-AM uptake at 5 uM preincubated for 30 mins followed by calcein-AM addition measured after 30 mins by fluorescence spectrometric method relative to control; format: cell-based; details: 0.5 h
T1 sequence (P08183 whole entry): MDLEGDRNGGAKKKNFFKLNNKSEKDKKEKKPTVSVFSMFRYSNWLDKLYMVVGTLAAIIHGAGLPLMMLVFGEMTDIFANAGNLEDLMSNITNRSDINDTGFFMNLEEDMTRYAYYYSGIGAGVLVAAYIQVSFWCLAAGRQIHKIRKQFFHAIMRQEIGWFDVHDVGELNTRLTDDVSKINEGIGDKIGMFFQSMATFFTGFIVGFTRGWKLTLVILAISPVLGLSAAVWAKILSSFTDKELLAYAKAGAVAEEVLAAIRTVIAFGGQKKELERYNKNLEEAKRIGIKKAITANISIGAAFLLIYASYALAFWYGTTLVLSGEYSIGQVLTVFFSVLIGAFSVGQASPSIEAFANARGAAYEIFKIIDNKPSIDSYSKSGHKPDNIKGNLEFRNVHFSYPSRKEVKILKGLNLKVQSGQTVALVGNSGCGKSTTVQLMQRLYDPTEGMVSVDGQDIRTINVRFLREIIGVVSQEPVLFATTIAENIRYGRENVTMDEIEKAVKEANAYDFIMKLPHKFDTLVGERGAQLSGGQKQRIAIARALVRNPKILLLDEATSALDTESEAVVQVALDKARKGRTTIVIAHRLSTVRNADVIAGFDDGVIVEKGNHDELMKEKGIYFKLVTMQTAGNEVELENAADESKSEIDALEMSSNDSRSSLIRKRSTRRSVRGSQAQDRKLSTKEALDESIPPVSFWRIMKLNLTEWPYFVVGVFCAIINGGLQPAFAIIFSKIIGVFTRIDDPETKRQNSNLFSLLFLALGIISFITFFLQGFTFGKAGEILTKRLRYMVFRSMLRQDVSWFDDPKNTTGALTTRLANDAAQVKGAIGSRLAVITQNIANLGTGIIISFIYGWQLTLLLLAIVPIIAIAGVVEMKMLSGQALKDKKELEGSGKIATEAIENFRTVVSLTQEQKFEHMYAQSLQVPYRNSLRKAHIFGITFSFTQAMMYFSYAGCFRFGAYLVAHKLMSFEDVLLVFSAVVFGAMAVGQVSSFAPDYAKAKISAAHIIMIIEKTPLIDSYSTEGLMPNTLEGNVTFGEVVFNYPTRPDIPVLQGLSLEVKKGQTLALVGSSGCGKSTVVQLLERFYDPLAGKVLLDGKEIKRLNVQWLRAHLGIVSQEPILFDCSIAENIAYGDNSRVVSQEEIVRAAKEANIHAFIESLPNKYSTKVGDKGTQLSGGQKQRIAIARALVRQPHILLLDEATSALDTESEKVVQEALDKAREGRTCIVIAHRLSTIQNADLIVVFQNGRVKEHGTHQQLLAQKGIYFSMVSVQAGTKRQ

[2] = target: T1, ATP-dependent translocase ABCB1; assay: Inhibition of ABCB1 (unknown origin) expressed in Flp-In-293 cells assessed as increase in calcein-AM uptake at 10 uM preincubated for 30 mins followed by calcein-AM addition measured after 30 mins by fluorescence spectrometric method relative to control; format: cell-based; details: 0.5 h
[3] = target: T1, ATP-dependent translocase ABCB1; assay: Inhibition of ABCB1 (unknown origin) expressed in Flp-In-293 cells assessed as increase in calcein-AM uptake at 2.5 uM preincubated for 30 mins followed by calcein-AM addition measured after 30 mins by fluorescence spectrometric method relative to control; format: cell-based; details: 0.5 h
[4] = species on record: Homo sapiens; assay: Inhibition of P-gp in human HeLaS3 cells assessed as potentiation of doxorubicin-induced cytotoxicity at 2.5 uM by SRB assay relative to control; format: cell-based
[5] = tested on: HEK293; assay: Potentiation of vincristine-induced cytotoxicity against human Flp-In-293 cells at 1 uM by SRB assay relative to control; format: functional
[6] = species on record: Homo sapiens; assay: Inhibition of P-gp in human HeLaS3 cells assessed as potentiation of doxorubicin-induced cytotoxicity at 1 uM by SRB assay relative to control; format: cell-based
[7] = species on record: Homo sapiens; assay: Inhibition of P-gp in human HeLaS3 cells assessed as potentiation of vincristine-induced cytotoxicity at 2.5 uM by SRB assay relative to control; format: cell-based
[8] = species on record: Homo sapiens; assay: Inhibition of P-gp in human KBVIN cells assessed as potentiation of vincristine-induced cytotoxicity at 1 uM by SRB assay relative to control; format: cell-based
[9] = species on record: Homo sapiens; assay: Inhibition of P-gp in human KBVIN cells assessed as potentiation of paclitaxel-induced cytotoxicity at 2.5 uM by SRB assay relative to control; format: cell-based
[10] = tested on: HEK293; assay: Potentiation of doxorubicin-induced cytotoxicity against human Flp-In-293 cells at 2.5 uM by SRB assay relative to control; format: functional
[11] = species on record: Homo sapiens; assay: Inhibition of P-gp in human KBVIN cells assessed as potentiation of doxorubicin-induced cytotoxicity at 2.5 uM by SRB assay relative to control; format: cell-based
[12] = tested on: HEK293; assay: Potentiation of doxorubicin-induced cytotoxicity against human Flp-In-293 cells at 1 uM by SRB assay relative to control; format: functional
[13] = tested on: HEK293; assay: Potentiation of paclitaxel-induced cytotoxicity against human Flp-In-293 cells at 1 uM by SRB assay relative to control; format: functional
[14] = species on record: Homo sapiens; assay: Inhibition of P-gp in human KBVIN cells assessed as potentiation of doxorubicin-induced cytotoxicity at 1 uM by SRB assay relative to control; format: cell-based
[15] = tested on: HEK293; assay: Potentiation of paclitaxel-induced cytotoxicity against human Flp-In-293 cells at 2.5 uM by SRB assay relative to control; format: functional
[16] = species on record: Homo sapiens; assay: Inhibition of P-gp in human HeLaS3 cells assessed as potentiation of paclitaxel-induced cytotoxicity at 1 uM by SRB assay relative to control; format: cell-based
[17] = species on record: Homo sapiens; assay: Inhibition of P-gp in human HeLaS3 cells assessed as potentiation of vincristine-induced cytotoxicity at 1 uM by SRB assay relative to control; format: cell-based
[18] = tested on: HeLa S3; assay: Cytotoxicity against human HeLaS3 assessed as reduction in cell viability by SRB assay; format: cell-based
[19] = species on record: Homo sapiens; assay: Inhibition of P-gp in human KBVIN cells assessed as potentiation of vincristine-induced cytotoxicity at 2.5 uM by SRB assay relative to control; format: cell-based
[20] = species on record: Homo sapiens; assay: Inhibition of P-gp in human KBVIN cells assessed as potentiation of paclitaxel-induced cytotoxicity at 1 uM by SRB assay relative to control; format: cell-based
[21] = tested on: HEK293; assay: Potentiation of vincristine-induced cytotoxicity against human Flp-In-293 cells at 2.5 uM by SRB assay relative to control; format: functional

Compound	fold change (FC) [1]	fold change (FC) [2]	fold change (FC) [3]	further results
COc1ccc(-c2cc(OCc3ccncc3)c3c(-c4cccs4)c(N)oc3c2)cc1OC	5.93	7.79		
COc1ccc(-c2cc(OC(C)=O)c3c(-c4ccc(Cl)cc4)c(N)oc3c2)cc1	2.2		1.52	
COc1ccc(-c2cc(O)c3c(-c4cccs4)c(N)oc3c2)cc1OC	1.15			
COc1ccc(-c2cc(OCc3ccncc3)c3c(-c4cccs4)c(N)oc3c2)cc1	4.33	5.88		
COc1ccc(-c2cc(OC(C)=O)c3c(-c4cccnc4)c(N)oc3c2)cc1	1.13		0.89	
COc1ccc(-c2cc(OC(C)=O)c3c(-c4ccccc4F)c(N)oc3c2)cc1	1.82		1.31	
COc1ccc(-c2cc(OCCCN3CCCCC3)c3c(-c4cccs4)c(N)oc3c2)cc1OC	4.55			
COc1ccc(-c2cc(OC(C)=O)c3c(-c4cccs4)c(N)oc3c2)cc1	2.2		1.9	
COc1ccc(-c2cc(OC(C)=O)c3c(-c4ccc(C)cc4)c(N)oc3c2)cc1	1.86		1.45	
COc1ccc(CCN(C)CCCC(C#N)(c2ccc(OC)c(OC)c2)C(C)C)cc1OC (configuration not stated)				fold change (FC) [4]: 2.82; fold change (FC) [5]: 1.82; fold change (FC) [6]: 1.33; fold change (FC) [7]: 1.59; fold change (FC) [8]: 24; fold change (FC) [9]: 22.9; fold change (FC) [10]: 0.8; fold change (FC) [11]: 6.69; fold change (FC) [12]: 1.04; fold change (FC) [13]: 1.49; fold change (FC) [14]: 1.61; fold change (FC) [15]: 1.37; fold change (FC) [16]: 3.91; fold change (FC) [17]: 1.27; IC50 [18]: > 50 µM; fold change (FC) [19]: 46.1; fold change (FC) [20]: 5.13; fold change (FC) [21]: 9.54
COc1ccc(-c2cc(OC(C)=O)c3c(-c4ccccc4Cl)c(N)oc3c2)cc1	1.59		1.3	
COc1ccc(-c2cc(OCCN3CCOCC3)c3c(-c4cccs4)c(N)oc3c2)cc1OC	8.42	8.85		
COc1ccc(-c2cc(OC(C)=O)c3c(-c4cccs4)c(N)oc3c2)cc1OC	4.35		3.75	
COc1ccc(-c2cc(OC(C)=O)c3c(-c4ccc(OC)cc4)c(N)oc3c2)cc1	1.75		1.17	
COc1ccc(-c2cc(OC(C)=O)c3c(-c4ccc5c(c4)OCO5)c(N)oc3c2)cc1	1.48		1.3	
COc1ccc(-c2cc(OCCN3CCCCC3)c3c(-c4cccs4)c(N)oc3c2)cc1	7.53	5.66		
COc1ccc(-c2cc(OCc3ccccn3)c3c(-c4cccs4)c(N)oc3c2)cc1	3.22	4.33		
COc1ccc(-c2cc(OC(C)=O)c3c(-c4cccc(Cl)c4)c(N)oc3c2)cc1	2.45		1.85	
COc1ccc(-c2cc(OCc3cccnc3)c3c(-c4cccs4)c(N)oc3c2)cc1	3.68	4.72		
COc1ccc(-c2cc(OCc3ncc(C)c(OC)c3C)c3c(-c4cccs4)c(N)oc3c2)cc1	7.97	8.38		
COc1ccc(-c2cc(OC(C)=O)c3c(-c4c(Cl)cccc4Cl)c(N)oc3c2)cc1	1.81		1.34	
COc1ccc(-c2cc(OC(C)=O)c3c(-c4ccccc4)c(N)oc3c2)cc1	2.27		1.7	
CC(=O)Oc1cc(-c2ccccc2)cc2oc(N)c(-c3cccs3)c12	0.98		0.95	

More lines, main results first:

fold change (FC) [1]	fold change (FC) [2]	fold change (FC) [3]	Compound	further results
1.26		0.94	COc1ccc(-c2cc(OC(C)=O)c3c(-c4ccc(F)cc4)c(N)oc3c2)cc1	
1.61		1.35	COc1ccc(-c2cc(OC(C)=O)c3c(-c4c(F)cccc4Cl)c(N)oc3c2)cc1	
8.85	10.14		CCN(CC)CCOc1cc(-c2ccc(OC)cc2)cc2oc(N)c(-c3cccs3)c12	
0.81	0.85		COc1ccc(-c2cc(OCc3ccccc3)c3c(-c4cccs4)c(N)oc3c2)cc1	
0.6	0.56		COc1ccc(-c2cc(OCc3cccc(Cl)c3)c3c(-c4cccs4)c(N)oc3c2)cc1	
1.62		1.46	COc1ccc(-c2cc(O)c3c(-c4cccs4)c(N)oc3c2)cc1	
1.83		1.82	COc1ccc(-c2cc(OC(C)=O)c3c(-c4ccc(Cl)c(Cl)c4)c(N)oc3c2)cc1	
0.86		0.96	CC(=O)Oc1cc(-c2ccc3c(c2)OCO3)cc2oc(N)c(-c3cccs3)c12	
1.49		1.32	COc1ccc(-c2cc(OC(C)=O)c3c(-c4ccccc4OC)c(N)oc3c2)cc1	
6.06			COc1ccc(-c2cc(OCCN3CCCCC3)c3c(-c4cccs4)c(N)oc3c2)cc1OC	
0.78	0.71		COc1ccc(-c2cc(OCc3cccc(OC)c3)c3c(-c4cccs4)c(N)oc3c2)cc1	
0.78	0.85		COc1ccc(-c2cc(OCc3ccc([N+](=O)[O-])cc3)c3c(-c4cccs4)c(N)oc3c2)cc1	
1.12		1.05	CC(=O)Oc1cccc2oc(N)c(-c3cccs3)c12	
6.64	8.86		COc1ccc(-c2cc(OCCN3CCOCC3)c3c(-c4cccs4)c(N)oc3c2)cc1	
